Among the test systems are IGROV-1; HOP-62; HOP-92; OVCAR-5; Hs-578T; MDA-MB-231; NCI-H226; SK-MEL-2; M14; UACC-257; OVCAR-3; SF-295; NCI-H460; UACC-62; HL-60; SF-539; UO-31; RPMI-8226; BT-549; SR.
Holding throughout (test): growth of human tumour cells (NCI), 48 h

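1) Cells in 96-well plates. 2) Compound, 48 h, 5 concentrations. 3) Linear interpolation between surrounding doses. 4) Unreached endpoint = highest concentration. GI50 marks 50% less growth.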 The source made the active and inactive calls. Cut-off read from the data, not from the text of the source: active = GI50 up to about 1.1 µM and inactive = higher.

On to `c1ccc(CCCN2C3CCC2CN(CCOC(c2ccccc2)c2ccccc2)C3)cc1`, for which the GI50 in the assay on IGROV-1 is 13.8 µM (inactive); in the assay with HOP-62 it was 13.5 µM (inactive); in the assay with HOP-92 it was 12.5 µM (inactive); with OVCAR-5 it was 12.7 µM (inactive); in the assay with Hs-578T it was 13.9 µM (inactive); with MDA-MB-231, 8.3 µM (inactive). Besides, the GI50 in the assay on NCI-H226 was 11.3 µM (inactive); in the assay with SK-MEL-2, 10.6 µM (inactive); with M14 it was 4.99 µM (inactive); with UACC-257 it was 8.49 µM (inactive); in the assay with OVCAR-3 it was 13.2 µM (inactive); in the assay on SF-295, 12.2 µM (inactive). The GI50 in the assay with NCI-H460 is 8.75 µM (inactive); in the assay with UACC-62, 12.9 µM (inactive); with HL-60, 5.69 µM (inactive); in the assay on SF-539, 8.39 µM (inactive); with UO-31, 12.2 µM (inactive); in the assay with RPMI-8226, 3.11 µM (inactive). For the same compound, in the assay with BT-549, the GI50 is 12.4 µM (inactive).
As to `Cc1ccc(S(=O)(=O)Nc2ccccc2C(=O)c2ccc(C)c(C)c2)cc1`, the GI50 with IGROV-1 was 34.6 µM (inactive); in the assay on HOP-62, > 100 µM (inactive); in the assay with OVCAR-5, > 100 µM (inactive); in the assay on Hs-578T it was 60.5 µM (inactive); in the assay with MDA-MB-231, > 100 µM (inactive); in the assay with NCI-H226, > 100 µM (inactive). In addition, the GI50 was > 100 µM (inactive) in the assay on SK-MEL-2; > 100 µM (inactive) with M14; 53.1 µM (inactive) in the assay with UACC-257; 83.9 µM (inactive) in the assay on OVCAR-3; 75 µM (inactive) with SF-295; 80.2 µM (inactive) in the assay on NCI-H460. Moreover, the GI50 in the assay with UACC-62 was 88.5 µM (inactive); with SF-539, > 100 µM (inactive); in the assay on UO-31 it was > 100 µM (inactive); with RPMI-8226 it was 42.9 µM (inactive); in the assay on BT-549 it was > 100 µM (inactive).
Turning to `Cc1cccc(/C(Br)=C2/OC(=O)c3ccccc32)c1`, the GI50 in the assay with IGROV-1, with HOP-62, with HOP-92, with OVCAR-5, with Hs-578T and in the assay with M14 was > 100 µM (inactive) in each case. Moreover, the GI50 is > 100 µM (inactive) with UACC-257; > 100 µM (inactive) in the assay with OVCAR-3; > 100 µM (inactive) with SF-295; > 100 µM (inactive) with NCI-H460; > 100 µM (inactive) in the assay with UACC-62; > 10 µM (inactive) in the assay with HL-60. The GI50 in the assay with SF-539, in the assay with RPMI-8226, in the assay with SR and in the assay on BT-549 was > 100 µM (inactive) each time.
On to `CSc1nc2c(c(=O)[nH]1)N=C(c1ccc([N+](=O)[O-])cc1)CC(c1ccccc1)N2` (stereo not given), for which the GI50 with IGROV-1 was 32.7 µM (inactive); with HOP-62, > 100 µM (inactive); with HOP-92, > 100 µM (inactive); with OVCAR-5 it was > 100 µM (inactive); with MDA-MB-231, 32.3 µM (inactive); in the assay with NCI-H226, > 100 µM (inactive). Besides, the GI50 with SK-MEL-2 is 28.3 µM (inactive); in the assay on M14, 29.7 µM (inactive); in the assay with UACC-257, 44.9 µM (inactive); with OVCAR-3, 55.6 µM (inactive); in the assay on SF-295, 51.1 µM (inactive); with UACC-62 it was 27.4 µM (inactive). In addition, the GI50 is 14.7 µM (inactive) in the assay with HL-60; 29.2 µM (inactive) in the assay on SF-539; 50 µM (inactive) in the assay on UO-31; 22 µM (inactive) in the assay with RPMI-8226; 62.4 µM (inactive) in the assay with SR; 37.7 µM (inactive) in the assay on BT-549.
Take `O=C(COc1ccc(OCC(=O)N2C(=O)CC(=O)N(c3ccc(Cl)cc3)C2=S)cc1)N1C(=O)CC(=O)N(c2ccc(Cl)cc2)C1=S`: the GI50 is 10.8 µM (inactive) with IGROV-1; 20.7 µM (inactive) with HOP-92; 12.9 µM (inactive) in the assay on OVCAR-5; 27.9 µM (inactive) in the assay with MDA-MB-231; 26.6 µM (inactive) in the assay with NCI-H226; 26.3 µM (inactive) with SK-MEL-2. Moreover, the GI50 was 32 µM (inactive) in the assay on M14; 36.1 µM (inactive) in the assay with UACC-257; 34 µM (inactive) in the assay on SF-295; 29.2 µM (inactive) in the assay on NCI-H460; 16.8 µM (inactive) in the assay with UACC-62; 31.7 µM (inactive) in the assay with UO-31. Besides, the GI50 in the assay on RPMI-8226 was 49.5 µM (inactive); in the assay with BT-549, 23.3 µM (inactive).
On to `O=c1c2cc(-c3ccccc3)cnc2sn1-c1ccc([N+](=O)[O-])cc1`, for which the GI50 in the assay on IGROV-1 is 29.6 µM (inactive); with HOP-62 it was 26.5 µM (inactive); with HOP-92, 20.6 µM (inactive); in the assay with OVCAR-5 it was > 100 µM (inactive); with MDA-MB-231, 41.3 µM (inactive); with NCI-H226, 44.5 µM (inactive). Also, the GI50 in the assay on SK-MEL-2 was 35.6 µM (inactive); in the assay with M14 it was 50.6 µM (inactive); in the assay on UACC-257 it was > 100 µM (inactive); in the assay with OVCAR-3, 16.9 µM (inactive); with SF-295, 27 µM (inactive); in the assay on NCI-H460, 37.3 µM (inactive). Also, the GI50 in the assay on UACC-62 was 17.7 µM (inactive); with HL-60, 37.8 µM (inactive); in the assay on SF-539, 42.7 µM (inactive); in the assay with UO-31 it was 40 µM (inactive); in the assay with RPMI-8226, 23.4 µM (inactive); in the assay with SR, > 100 µM (inactive). Besides, the GI50 with BT-549 is 52.8 µM (inactive).
As to `CC(C)(C)C1=CC(O)(c2c3ccccc3c(C3(O)C=C(C(C)(C)C)C(=O)C(C(C)(C)C)=C3)c3ccccc23)C=C(C(C)(C)C)C1=O`, the GI50 in the assay with IGROV-1 was > 100 µM (inactive); in the assay on HOP-62, > 100 µM (inactive); with HOP-92 it was < 0.01 µM (active); with OVCAR-5, > 100 µM (inactive); in the assay with Hs-578T, > 100 µM (inactive); in the assay with MDA-MB-231 it was 27 µM (inactive). In addition, the GI50 in the assay on NCI-H226, in the assay with SK-MEL-2, in the assay with M14, with UACC-257, in the assay with OVCAR-3 and in the assay with SF-295 was > 100 µM (inactive) throughout. Moreover, the GI50 is > 100 µM (inactive) in the assay with UACC-62; > 10 µM (inactive) in the assay on HL-60; > 100 µM (inactive) in the assay on SF-539; > 100 µM (inactive) with UO-31; 58.3 µM (inactive) in the assay with RPMI-8226; > 100 µM (inactive) with BT-549.
As to `COc1ccc(CCN2CCc3c(C)c(C#N)c4nc5ccccc5n4c32)cc1OC`, the GI50 is 37.2 µM (inactive) in the assay on IGROV-1; 33.7 µM (inactive) in the assay with HOP-62; 22.8 µM (inactive) with HOP-92; > 100 µM (inactive) with OVCAR-5; 12.9 µM (inactive) with Hs-578T; 19.1 µM (inactive) in the assay with MDA-MB-231. Moreover, the GI50 is 27.5 µM (inactive) in the assay on NCI-H226; 16.3 µM (inactive) with SK-MEL-2; > 100 µM (inactive) in the assay on M14; 33.2 µM (inactive) with UACC-257; 27.2 µM (inactive) in the assay on OVCAR-3; 42.4 µM (inactive) with SF-295. In addition, the GI50 with NCI-H460 was 20.2 µM (inactive); in the assay with UACC-62 it was 24.2 µM (inactive); with HL-60, 33.9 µM (inactive); with SF-539, 49.9 µM (inactive); in the assay on UO-31 it was 36.3 µM (inactive); with BT-549, 27.2 µM (inactive).
Turning to `CC(=O)Oc1ccc2c3c1[C@@H]1O[C@@H]1c1cccc(c1-3)[C@@H]1O[C@H]21`, the GI50 in the assay on HOP-62 is 2.01 µM (inactive); with HOP-92, 1.81 µM (inactive); with OVCAR-5, 1.86 µM (inactive); in the assay on Hs-578T, 2.87 µM (inactive); with MDA-MB-231, 2.02 µM (inactive); with NCI-H226, 18.2 µM (inactive). Further, the GI50 was 2.37 µM (inactive) in the assay with SK-MEL-2; 1.72 µM (inactive) with M14; 2.43 µM (inactive) in the assay with UACC-257; 2 µM (inactive) with OVCAR-3; 1.94 µM (inactive) in the assay on SF-295; 1.87 µM (inactive) in the assay on UACC-62. Moreover, the GI50 in the assay on HL-60 is 0.883 µM (active); in the assay with UO-31 it was 1.52 µM (inactive); in the assay with RPMI-8226, 1.37 µM (inactive); with BT-549, 1.87 µM (inactive).
On to `CN(CCC(=O)N1CC(CCl)c2ccc([N+](=O)[O-])cc21)CCC(=O)N1CC(CCl)c2ccc([N+](=O)[O-])cc21` (stereo not given), for which the GI50 was 33.7 µM (inactive) with HOP-62; > 100 µM (inactive) with OVCAR-5; 2.85 µM (inactive) with Hs-578T; 16.7 µM (inactive) with MDA-MB-231; 6.95 µM (inactive) with NCI-H226; 13.2 µM (inactive) in the assay on SK-MEL-2. The GI50 is 10.1 µM (inactive) with M14; 9.2 µM (inactive) with UACC-257; 11.5 µM (inactive) with OVCAR-3; 13.7 µM (inactive) with SF-295; 24.7 µM (inactive) in the assay on NCI-H460; 12.3 µM (inactive) with UACC-62. Moreover, the GI50 is 14.6 µM (inactive) in the assay with SF-539, 3.96 µM (inactive) in the assay with RPMI-8226, 1.77 µM (inactive) in the assay with SR and 23.6 µM (inactive) in the assay with BT-549.
In the case of `O=c1c(Cc2cccc(Cc3c(O)oc4ccccc4c3=O)c2)c(O)oc2ccccc12`, the GI50 in the assay with IGROV-1, in the assay on HOP-62, with HOP-92, in the assay on OVCAR-5, in the assay with Hs-578T and with MDA-MB-231 was > 100 µM (inactive) each time. Besides, the GI50 with NCI-H226, in the assay on SK-MEL-2, in the assay with M14, in the assay with UACC-257, with OVCAR-3 and with SF-295 was > 100 µM (inactive) throughout. Further, the GI50 in the assay with NCI-H460, in the assay with UACC-62, in the assay on HL-60, in the assay with SF-539, with UO-31 and in the assay with RPMI-8226 was > 100 µM (inactive) each time. Moreover, the GI50 with BT-549 is > 100 µM (inactive).

(Values after ChEMBL document CHEMBL1201862, “PubChem BioAssay data set” (2004).)
